Usually IC50 stands for the concentration at which inhibition is half-maximal.

For one experiment, the target named is T1, EHMT1 (Homo sapiens, UniProt Q9H9B1).
T1 sequence (Q9H9B1 1-1298): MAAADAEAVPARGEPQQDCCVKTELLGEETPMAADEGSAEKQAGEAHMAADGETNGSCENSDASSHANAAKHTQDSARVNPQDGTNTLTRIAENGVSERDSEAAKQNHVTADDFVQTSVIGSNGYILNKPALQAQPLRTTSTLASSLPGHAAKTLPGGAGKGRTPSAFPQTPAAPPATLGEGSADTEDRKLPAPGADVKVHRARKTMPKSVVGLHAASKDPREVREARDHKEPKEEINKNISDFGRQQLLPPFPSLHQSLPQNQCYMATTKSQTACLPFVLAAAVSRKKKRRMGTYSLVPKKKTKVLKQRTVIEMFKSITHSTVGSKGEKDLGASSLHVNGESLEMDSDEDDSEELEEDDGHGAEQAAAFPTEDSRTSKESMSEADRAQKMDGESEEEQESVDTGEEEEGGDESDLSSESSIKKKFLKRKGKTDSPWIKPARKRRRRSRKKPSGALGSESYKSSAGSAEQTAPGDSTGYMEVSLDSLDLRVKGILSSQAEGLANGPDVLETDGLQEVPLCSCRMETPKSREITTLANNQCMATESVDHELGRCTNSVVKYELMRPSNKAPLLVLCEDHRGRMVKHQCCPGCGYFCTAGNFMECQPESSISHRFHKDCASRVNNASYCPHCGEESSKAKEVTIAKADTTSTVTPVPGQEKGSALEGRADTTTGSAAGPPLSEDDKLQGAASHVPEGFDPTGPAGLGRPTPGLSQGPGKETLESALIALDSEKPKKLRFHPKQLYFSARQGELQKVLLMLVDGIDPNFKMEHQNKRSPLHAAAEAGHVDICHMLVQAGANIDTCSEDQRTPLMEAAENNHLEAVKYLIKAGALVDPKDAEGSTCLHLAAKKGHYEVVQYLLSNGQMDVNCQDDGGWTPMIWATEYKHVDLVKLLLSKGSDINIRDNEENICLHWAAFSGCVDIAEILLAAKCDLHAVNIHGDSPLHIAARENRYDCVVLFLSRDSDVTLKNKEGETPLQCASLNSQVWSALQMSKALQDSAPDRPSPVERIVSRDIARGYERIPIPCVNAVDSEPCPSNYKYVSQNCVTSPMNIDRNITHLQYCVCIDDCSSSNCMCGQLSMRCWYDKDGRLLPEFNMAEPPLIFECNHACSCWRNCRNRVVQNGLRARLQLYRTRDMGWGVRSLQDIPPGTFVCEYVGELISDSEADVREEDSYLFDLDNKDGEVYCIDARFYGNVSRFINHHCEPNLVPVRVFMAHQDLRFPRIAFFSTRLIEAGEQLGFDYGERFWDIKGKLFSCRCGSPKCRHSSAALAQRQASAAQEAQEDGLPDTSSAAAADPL
The experiment can be described thus: EHMT1 enzyme assay on peptide substrate (EHMT1 PEP). The experiment is classed as biochemical.

Another experiment has as its target T2, human EHMT2 913-1193 (Homo sapiens, UniProt Q96KQ7).
T2 construct: recombinant purified human EHMT2 913-1193, Viva; purchased Viva
T2 sequence (Q96KQ7 913-1193): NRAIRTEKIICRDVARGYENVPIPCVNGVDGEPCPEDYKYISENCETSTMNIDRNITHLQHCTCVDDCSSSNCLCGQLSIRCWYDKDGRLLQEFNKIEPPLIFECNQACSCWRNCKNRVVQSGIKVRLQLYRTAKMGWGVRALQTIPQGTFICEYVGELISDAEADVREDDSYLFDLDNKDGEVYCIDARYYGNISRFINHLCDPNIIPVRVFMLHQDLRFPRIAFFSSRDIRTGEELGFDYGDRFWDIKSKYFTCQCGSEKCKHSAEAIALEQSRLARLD
Description: EHMT2 enzyme assay on histone peptide substrate (EHMT2 PEP). It is filed as biochemical. The method, then:
Recombinant purified human EHMT2 913-1193 (55 μM) synthesized by Viva was used for all experiments. Biotinylated histone peptides were synthesized by Biopeptide and HPLC-purified to >95% purity. Streptavidin Flashplates and seals were purchased from PerkinElmer and 384 Well V-bottom Polypropylene Plates were from Greiner. ^3H-labeled S-adenosylmethionine (^3H-SAM) was obtained from American Radiolabeled Chemicals with a specific activity of 80 Ci/mmol. Unlabeled SAM and S-adenosylhomocysteine (SAH) were obtained from American Radiolabeled Chemicals and Sigma-Aldrich respectively. Flashplates were washed in a Biotek ELx-405 with 0.1% Tween. 384-well Flashplates and 96-well filter binding plates were read on a TopCount microplate reader (PerkinElmer). Compound serial dilutions were performed on a Freedom EVO (Tecan) and spotted into assay plates using a Thermo Scientific Matrix PlateMate (Thermo Scientific). Reagent cocktails were added by Multidrop Combi (Thermo Scientific).
General Procedure for EHMT2 Enzyme Assay on Histone Peptide Substrate.
10-point curves of test compounds were made on a Freedom EVO (Tecan) using serial 3-fold dilutions in DMSO, beginning at 2.5 mM (final top concentration of compound was 50 μM and the DMSO was 2%). A 1 μL aliquot of the inhibitor dilution series was spotted in a polypropylene 384-well V-bottom plate (Greiner) using a Thermo Scientific Matrix PlateMate (Thermo Scientific). […] Compounds were incubated for 30 minutes with 40 μL per well of 0.031 nM EHMT2 (recombinant purified human EHMT2 913-1193, Viva) in 1× assay buffer (20 mM Bicine [pH 7.5], 0.002% Tween 20, 0.005% Bovine Skin Gelatin and 1 mM TCEP). […] Reactions were incubated for 60 minutes at room temperature and quenched with 10 μL per well of 400 μM unlabeled SAM, then transferred to a 384-well streptavidin Flashplate (PerkinElmer) and washed in a Biotek ELx-405 well washer with 0.1% Tween after 60 minutes. 384-well Flashplates were read on a TopCount microplate reader (PerkinElmer).

The mark [1] stands for this setting: Table II, read-out: EHMT1 PEP (IC50 μM).
The mark [2] stands for this setting: Table II, read-out: EHMT2 PEP (IC50 μM).
[3] abbreviates: Table III, read-out: EHMT1 PEP (IC50 μM).
[4] abbreviates: Table III, read-out: EHMT2 PEP (IC50 μM).
[5] abbreviates: Table VII, read-out: EHMT1 PEP IC50.
[6] abbreviates: Table VII, read-out: EHMT2 PEP IC50.

The structures appear in SMILES notation. Read-outs that look alike come from different tables or passages of the source.

Regarding `COc1ccc(Nc2ccnc(CNC3CCOCC3)n2)cc1OCCCN1CCCC1` [Compound 190], the IC50 at EHMT1 (setting [1]) and at human EHMT2 913-1193 (setting [2]) was 1 to 10 µM each time.
For `COc1ccc(Nc2ncc(NC(C)=O)cn2)cc1OCCCN1CCCC1` [Compound 194], the half-inhibitory concentration (IC50) on EHMT1 (setting [1]) and at human EHMT2 913-1193 (setting [2]) was above 10 µM in each case.
For `COc1ccc(Nc2nccc(CCN3CCN(C(C)=O)CC3)n2)cc1OCCCN1CCCC1` [Compound 196], the 50% inhibitory concentration (IC50) on EHMT1 (setting [1]) and at human EHMT2 913-1193 (setting [2]) was above 10 µM throughout.
Take `COc1ccc(Nc2cccc3nn(C)cc23)cc1OCCCN1CCCC1` [Compound 197]: the half-maximal inhibitory concentration (IC50) on EHMT1 (setting [1]) and at human EHMT2 913-1193 (setting [2]) was above 10 µM in each case.
On to `COc1ccc(Nc2ccc3ncn(C)c3c2)cc1OCCCN1CCCC1` [Compound 200], for which the 50% inhibitory concentration (IC50) on EHMT1 (setting [1]) and at human EHMT2 913-1193 (setting [2]) was above 10 µM each time.
Turning to `COc1ccc(Nc2cccn3ncnc23)cc1OCCCN1CCCC1` [Compound 201], the IC50 at EHMT1 (setting [1]) and on human EHMT2 913-1193 (setting [2]) was above 10 µM each time.
Regarding `COc1ccc(Nc2cc(C)nc3ncnn23)cc1OCCCN1CCCC1` [Compound 202], the IC50 on EHMT1 (setting [1]) and on human EHMT2 913-1193 (setting [2]) was above 10 µM each time.
With `CNc1nc(Nc2ccc(OC)c(OCCCN3CCCC3)c2)ncc1Cl` [Compound 211], the IC50 at EHMT1 (setting [1]) and on human EHMT2 913-1193 (setting [2]) was 1 to 10 µM throughout.
Regarding `CNc1ccnc(Nc2cccc(OCC(O)CN3CCCC3)c2)n1` (stereo not drawn) [Compound 212], the IC50 on EHMT1 (setting [1]) and on human EHMT2 913-1193 (setting [2]) was 1 to 10 µM each time.
For `COc1ccc(Nc2ncc(N)cn2)cc1OCCCN1CCCC1` [Compound 213], the half-inhibitory concentration (IC50) at EHMT1 (setting [1]) and on human EHMT2 913-1193 (setting [2]) was above 10 µM in each case.
On to `COc1ccc(Nc2nccc(NCC3COC3)n2)cc1OCCCN1CCCC1` [Compound 256, N^2-(4-methoxy-3-(3-(pyrrolidin-1-yl)propoxy)phenyl)-N^4-(oxetan-3-ylmethyl)pyrimidine-2,4-diamine], for which the IC50 on EHMT1 (setting [3]) and at human EHMT2 913-1193 (setting [4]) was above 10 µM in each case.
Regarding `CNc1nc(Nc2ccc(OC)c(OCCCN3CCCC3)c2)nc2ccccc12` [Compound 263, N^2-(4-methoxy-3-(3-(pyrrolidin-1-yl)propoxy)phenyl)-N^4-methylquinazoline-2,4-diamine], the IC50 at EHMT1 (setting [3]) and on human EHMT2 913-1193 (setting [4]) was below 0.1 µM throughout.
Take `CNc1ccnc(Nc2ccc(OC(F)(F)F)c(OCCCN3CCCC3)c2)n1` [Compound 315, N^4-methyl-N^2-(3-(3-(pyrrolidin-1-yl)propoxy)-4-(trifluoromethoxy)phenyl)pyrimidine-2,4-diamine]: the IC50 on EHMT1 (setting [3]) and at human EHMT2 913-1193 (setting [4]) was 1 to 10 µM each time.
`CCc1ccccc1NC(=O)Nc1ccc(Nc2nc(C)cc(N3CCCC3)n2)cc1` [Compound 1115]: the half-inhibitory concentration (IC50) on EHMT1 (setting [5]) and at human EHMT2 913-1193 (setting [6]) was 1 to 10 µM in each case.
Turning to `CCNc1nc(C)cc(Nc2ccc(NC(=O)Nc3ccc(F)cc3)cc2)n1` [Compound 1116], the half-inhibitory concentration (IC50) on EHMT1 (setting [5]) was above 10 µM; at human EHMT2 913-1193 (setting [6]) it was 1 to 10 µM.
With `Cc1cc(N(C)C)nc(Nc2ccc(NC(=O)Nc3ccc(Cl)cc3)cc2)n1` [Compound 1117], the half-inhibitory concentration (IC50) was above 10 µM at EHMT1 (setting [5]) and 1 to 10 µM on human EHMT2 913-1193 (setting [6]).
On to `CCNc1nc(C)cc(Nc2ccc(NC(=O)Nc3ccc(C)c(C)c3)cc2)n1` [Compound 1118], for which the half-maximal inhibitory concentration (IC50) is above 10 µM on EHMT1 (setting [5]) and 1 to 10 µM at human EHMT2 913-1193 (setting [6]).
As to `Cc1ccc(NC(=O)Nc2ccc(Nc3nc(C)cc(N4CCCC4)n3)cc2)cc1` [Compound 1119], the half-maximal inhibitory concentration (IC50) on EHMT1 (setting [5]) and on human EHMT2 913-1193 (setting [6]) was 1 to 10 µM throughout.

Values taken from patent publication US20210198277A1, “AMINE-SUBSTITUTED ARYL OR HETEROARYL COMPOUNDS” (Epizyme, Inc., priority 2016, published 2021).
